Reference: US20170320848A1, “COMPOUNDS FOR USE IN ANTHELMINTHIC TREATMENT” (Bayer Animal Health GMBH, priority 2014, published 2017)

Columns and labels:
[1] = Measurement of LogP values by HPLC on reversed phase columns (EEC directive 79/831 Annex V.A8); type: physicochemical; conditions: acidic range, 0.1% formic acid in water and acetonitrile as eluent, read-out: logP (HCOOH)[a]
Cooperia curticei = Cooperia curticei assay (COOPCU), larval mortality; type: cell-based; conditions: Cooperia curticei, 120 h; application rate 20 ppm, after 5 days; read-out: activity (percentage of larval mortality)
Method: Cooperia Curticei—Assay (COOPCU)
(§1) Solvent: dimethyl sulfoxide
(§2) To produce a suitable preparation, 10 mg of active compound are dissolved in 0.5 ml solvent, and the concentrate is diluted with “Ringer's solution” to the desired concentration.
Approximately 40 nematode larvae (Cooperia curticei) are transferred into a test tube containing the compound solution.
After 5 days percentage of larval mortality is recorded. 100% efficacy means all larvae are killed; 0% efficacy means no larvae are killed.

Haemonchus contortus = Haemonchus contortus assay (HAEMCO), larval mortality; type: cell-based; conditions: Haemonchus contortus, 120 h; application rate 20 ppm, after 5 days; read-out: activity (percentage of larval mortality)
Method: Haemonchus Contortus—Assay (HAEMCO)
as §1, §2
Approximately 40 larvae of the red stomach worm (Haemonchus contortus) are transferred into a test tube containing compound solution.
After 5 days percentage of larval mortality are recorded. 100% efficacy means all larvae are killed, 0% efficacy means no larvae are killed.

[2] = system: Nippostrongylus brasiliensis; experiment: Nippostrongylus brasiliensis assay (NIPOBR), acetylcholine esterase readout; type: cell-based; conditions: read-out: activity (reduction of AChE compared to negative control)
Method: Nippostrongylus Brasiliensis—Assay (NIPOBR)
Adult Nippostrongylus brasiliensis were washed with saline buffer containing 100 U/ml penicillin, 0.1 mg/ml streptomycin and 2.5 μg/ml amphotericin B. Test compounds were dissolved in DMSO and worms were incubated in medium in a final concentration of 10 μg/ml (10 ppm) respectively 1 μg/ml (1 ppm). An aliquot of the medium was used to determine the acetylcholine esterase activity in comparison to a negative control. The principle of measuring acetylcholine esterase as readout for anthelmintic activity was described in Rapson et al (1986) and Rapson et al (1987).

Meloidogyne incognita = Meloidogyne incognita assay (MELGIN), gall formation on salad seedlings; type: in vivo; conditions: application rate 20 ppm, after 14 days

## Cc1cc(-c2ccc(F)cc2)ccc1C(F)(F)CNC(=O)c1ccccc1C(F)(F)F [Example 38]
[1]
  chromatographic logP: 4.16
Cooperia curticei
  mortality at 20 ppm: 100%
Haemonchus contortus
  mortality at 20 ppm: 100%
[2]
  inhibition at 10 µg/mL: ≥ 75%
Meloidogyne incognita
  nematicidal activity (percentage of gall formation): 100%
